Measured values reported in EPA's ToxRefDB 2.

Columns and labels:
rabbit [1] = details: Prenatal developmental toxicity study, new zealand white, Oral, Gavage/Intubation, dose end: 19 GD, group: maternal
mouse [2] = details: Prenatal developmental toxicity study, cd1, Oral, Gavage/Intubation, dose end: 15 GD
rat [3] = details: Combined chronic toxicity/carcinogenicity, wistar, Oral, Feed, dose end: 106 week, group: systemic
rat [4] = details: Prenatal developmental toxicity study, wistar, Oral, Gavage/Intubation, dose end: 15 GD
dog [5] = details: Chronic toxicity, beagle, Oral, Feed, dose end: 52 week, group: systemic
rat [6] = details: Subchronic oral toxicity in rodents, wistar, Feed, dose end: 13 week, group: systemic
dog [7] = details: Subchronic oral toxicity in nonrodent, beagle, Feed, dose end: 90 day, group: systemic, systemic / hematology / methemoglobin / methemoglobin
mouse [8] = details: Carcinogenicity, other, Oral, [Not Specified], dose end: 104 week, group: systemic
rat [9] = details: Subchronic oral toxicity in rodents, wistar, Feed, dose end: 13 week
rat [10] = details: Prenatal developmental toxicity study, wistar, Oral, Gavage/Intubation, dose end: 15 GD; remark: listed apart in the source
rat [11] = details: Multigenerational reproductive toxicity study, other, Oral, Feed, dose end: 2 generation
dog [12] = details: Chronic toxicity, beagle, Oral, Feed, dose end: 80 day, group: systemic
rabbit [13] = details: Prenatal developmental toxicity study, chinchilla, Oral, Gavage/Intubation, dose end: 27 GD
rat [14] = details: Combined chronic toxicity/carcinogenicity, sprague dawley, Oral, Feed, dose end: 104 week
[15] = systemic / in life observation / mortality / mortality + reproductive / reproductive performance / premature delivery / premature delivery
[16] = group: developmental, systemic / in life observation / body weight / fetal weight
[17] = group: maternal, reproductive / reproductive performance / resorptions / resorptions + systemic / in life observation / body weight / body weight gain + …
[18] = systemic / hematology / anemia / anemia - hemolytic + systemic / hematology / erythrocyte (rbc) count differential / erythrocyte (rbc) + …
[19] = systemic / pathology microscopic / thyroid gland / hyperplasia
[20] = group: developmental, developmental / developmental malformation / bone / incomplete ossification + developmental / developmental malformation / bone / unossified…
[21] = group: maternal, systemic / hematology / methemoglobin / methemoglobin
[22] = group: maternal, systemic / hematology / methemoglobin / methemoglobin + systemic / hematology / heinz body / heinz body + systemic / in life observation / …
[23] = systemic / hematology / methemoglobin / methemoglobin
[24] = systemic / hematology / methemoglobin / methemoglobin + systemic / clinical chemistry / triiodothyronine (t3) / triiodothyronine (t3), total
[25] = systemic / clinical chemistry / thyroxine (t4) / thyroxine (t4), total + systemic / hematology / methemoglobin / methemoglobin + systemic / …
[26] = systemic / hematology / anemia / anemia - heinz body + systemic / in life observation / body weight / body weight
[27] = group: cholinesterase, cholinesterase / cholinesterase / cholinesterase / brain cholinesterase (che) + cholinesterase / cholinesterase / cholinesterase / …
[28] = group: systemic, systemic / hematology / anemia / anemia - macrocytic + systemic / hematology / erythrocyte (rbc) count differential / erythrocyte (rbc) + …
[29] = group: developmental, developmental / developmental malformation / bone / absent + developmental / developmental malformation / bone / bipartite ossification + …
[30] = group: maternal, systemic / in life observation / body weight / body weight gain + systemic / in life observation / food consumption / food consumption
[31] = group: offspring, systemic / organ weight / kidney / relative to body weight + systemic / organ weight / liver / relative to body weight
[32] = group: parental, systemic / organ weight / spleen / absolute + systemic / organ weight / spleen / relative to body weight + systemic / hematology / anemia / …
[33] = group: parental, systemic / organ weight / spleen / absolute + systemic / organ weight / spleen / relative to body weight + systemic / in life observation / …
[34] = group: reproductive, reproductive / offspring survival early / litter size / litter size
[35] = systemic / hematology / methemoglobin / methemoglobin + systemic / urinalysis / appearance and color / appearance and color
[36] = group: developmental, systemic / in life observation / body weight / fetal weight + developmental / developmental malformation / bone / unossified
[37] = group: maternal, systemic / in life observation / body weight / body weight gain + systemic / in life observation / food consumption / food consumption + …
[38] = group: cholinesterase, cholinesterase / cholinesterase / cholinesterase / brain cholinesterase (che)
[39] = group: cholinesterase, cholinesterase / cholinesterase / cholinesterase / erythrocyte cholinesterase (che) + cholinesterase / cholinesterase / cholinesterase / …
[40] = group: systemic, systemic / hematology / erythrocyte (rbc) count differential / erythrocyte (rbc) + systemic / hematology / hematocrit (hct) / hematocrit (…

Which LOAEL (rabbit [1]; systemic / in life observation / mortality / mortality) does the source give for [O]=[Cr](=[O])([OH])[OH] [Chromic(VI) acid] here?
The LOAEL was 2 mg/kg/day.

And the LEL (rabbit [1]; [15])?
The LEL was 2 mg/kg/day.

What about the NEL (rabbit [1]; [15]) of the same molecule?
The NEL was 0.5 mg/kg/day.

And the NOAEL (rabbit [1]; [15])?
Its NOAEL is 0.5 mg/kg/day.

And the LEL (mouse [2]; [16])?
Its LEL is 120 mg/kg/day.

What about the LOAEL (mouse [2]; [16]) of the same molecule?
Its LOAEL is over 120 mg/kg/day.

What about the NEL (mouse [2]; [16]) of the same molecule?
The NEL was 60 mg/kg/day.

What about the NOAEL (mouse [2]; [16]) of the same molecule?
The NOAEL was at least 120 mg/kg/day.

And the LEL (mouse [2]; [17])?
The LEL was 120 mg/kg/day.

What about the LOAEL (mouse [2]; [17]) of the same molecule?
The LOAEL was 120 mg/kg/day.

And the NEL (mouse [2]; [17])?
Its NEL is 60 mg/kg/day.

What about the NOAEL (mouse [2]; [17]) of the same molecule?
Its NOAEL is 60 mg/kg/day.

Which LOAEL (rat [3]; [18]) does the source give for CCOC(=O)Nc1cccc(OC(=O)Nc2ccccc2)c1 [Desmedipham] here?
Its LOAEL is 16.1 mg/kg/day.

What about the NOAEL (rat [3]; [18]) of the same molecule?
Its NOAEL is 3.3 mg/kg/day.

What about the LEL (rat [3]; [19]) of the same molecule?
The LEL was 3.18 mg/kg/day.

What about the NEL (rat [3]; [19]) of the same molecule?
Its NEL is under 3.18 mg/kg/day.

What about the LEL (rat [4]; [20]) of the same molecule?
The LEL was 500 mg/kg/day.

And the LOAEL (rat [4]; [20])?
The LOAEL was 500 mg/kg/day.

And the NEL (rat [4]; [20])?
The NEL was 100 mg/kg/day.

And the NOAEL (rat [4]; [20])?
The NOAEL was 100 mg/kg/day.

What about the LEL (rat [4]; [21]) of the same molecule?
Its LEL is 100 mg/kg/day.

What about the LOAEL (rat [4]; [21]) of the same molecule?
Its LOAEL is 100 mg/kg/day.

What about the NEL (rat [4]; [22]) of the same molecule?
The NEL was 10 mg/kg/day.

And the NOAEL (rat [4]; [22])?
Its NOAEL is 10 mg/kg/day.

What about the LOAEL (dog [5]; [23]) of the same molecule?
The LOAEL was 9.6 mg/kg/day.

What about the NOAEL (dog [5]; [23]) of the same molecule?
Its NOAEL is under 9.6 mg/kg/day.

What about the LEL (dog [5]; [24]) of the same molecule?
The LEL was 9.6 mg/kg/day.

And the NEL (dog [5]; [24])?
Its NEL is under 9.6 mg/kg/day.

And the LOAEL (rat [6]; [25])?
The LOAEL was 26 mg/kg/day.

And the NOAEL (rat [6]; [25])?
Its NOAEL is 5.2 mg/kg/day.

And the LEL (rat [6]; [23])?
Its LEL is 5.2 mg/kg/day.

And the NEL (rat [6]; systemic / hematology / methemoglobin / methemoglobin + systemic / clinical chemistry / thyroxine (t4) / thyroxine (t4), total + systemic / …)?
The NEL was 2.6 mg/kg/day.

And the LEL (dog [7])?
The LEL was 4.97 mg/kg/day.

What about the LOAEL (dog [7]) of the same molecule?
Its LOAEL is 4.97 mg/kg/day.

And the NEL (dog [7])?
The NEL was 0.17 mg/kg/day.

And the NOAEL (dog [7])?
Its NOAEL is 0.17 mg/kg/day.

And the LOAEL (mouse [8]; systemic / hematology / anemia / anemia - heinz body)?
Its LOAEL is 109 mg/kg/day.

And the LEL (mouse [8]; [26])?
The LEL was 109 mg/kg/day.

And the NEL (mouse [8]; [26])?
Its NEL is 21.7 mg/kg/day.

What about the NOAEL (mouse [8]; [26]) of the same molecule?
Its NOAEL is 21.7 mg/kg/day.

What about the LEL (rat [9]; [27]) of the same molecule?
Its LEL is 15 mg/kg/day.

What about the LOAEL (rat [9]; [27]) of the same molecule?
Its LOAEL is 15 mg/kg/day.

What about the NEL (rat [9]; [27]) of the same molecule?
Its NEL is under 15 mg/kg/day.

And the NOAEL (rat [9]; [27])?
Its NOAEL is under 15 mg/kg/day.

What about the LEL (rat [9]; [28]) of the same molecule?
Its LEL is 15 mg/kg/day.

And the LOAEL (rat [9]; [28])?
The LOAEL was 15 mg/kg/day.

What about the NEL (rat [9]; [28]) of the same molecule?
The NEL was under 15 mg/kg/day.

What about the NOAEL (rat [9]; [28]) of the same molecule?
Its NOAEL is under 15 mg/kg/day.

And the LEL (rat [10]; [29])?
The LEL was 1000 mg/kg/day.

And the LOAEL (rat [10]; [29])?
Its LOAEL is 1000 mg/kg/day.

What about the NEL (rat [10]; [29]) of the same molecule?
Its NEL is 100 mg/kg/day.

And the NOAEL (rat [10]; [29])?
The NOAEL was 100 mg/kg/day.

And the LEL (rat [10]; [30])?
Its LEL is 1000 mg/kg/day.

What about the LOAEL (rat [10]; [30]) of the same molecule?
Its LOAEL is 1000 mg/kg/day.

And the NEL (rat [10]; [30])?
Its NEL is 100 mg/kg/day.

What about the NOAEL (rat [10]; [30]) of the same molecule?
Its NOAEL is 100 mg/kg/day.

What about the LOAEL (rat [11]; group: offspring, systemic / in life observation / body weight / offspring (pup) weight) of the same molecule?
The LOAEL was 110 mg/kg/day.

What about the NOAEL (rat [11]; group: offspring, systemic / in life observation / body weight / offspring (pup) weight + systemic / organ weight / heart / absolute + systemic / organ weight…) of the same molecule?
Its NOAEL is 20 mg/kg/day.

And the LEL (rat [11]; [31])?
The LEL was 4 mg/kg/day.

What about the NEL (rat [11]; [31]) of the same molecule?
The NEL was under 4 mg/kg/day.

What about the LEL (rat [11]; [32]) of the same molecule?
The LEL was 20 mg/kg/day.

What about the LOAEL (rat [11]; [32]) of the same molecule?
Its LOAEL is 20 mg/kg/day.

What about the NEL (rat [11]; [33]) of the same molecule?
The NEL was 4 mg/kg/day.

What about the NOAEL (rat [11]; [33]) of the same molecule?
Its NOAEL is 4 mg/kg/day.

What about the LEL (rat [11]; [34]) of the same molecule?
The LEL was 110 mg/kg/day.

And the LOAEL (rat [11]; [34])?
The LOAEL was over 110 mg/kg/day.

What about the NEL (rat [11]; [34]) of the same molecule?
The NEL was 20 mg/kg/day.

And the NOAEL (rat [11]; [34])?
Its NOAEL is at least 110 mg/kg/day.

And the LOAEL (dog [12]; [23])?
The LOAEL was 12.5 mg/kg/day.

What about the NOAEL (dog [12]; [23]) of the same molecule?
The NOAEL was under 12.5 mg/kg/day.

What about the LEL (dog [12]; [35]) of the same molecule?
Its LEL is 12.5 mg/kg/day.

What about the NEL (dog [12]; [35]) of the same molecule?
Its NEL is under 12.5 mg/kg/day.

What about the LEL (rabbit [13]; [36]) of the same molecule?
The LEL was 450 mg/kg/day.

And the LOAEL (rabbit [13]; [36])?
The LOAEL was 450 mg/kg/day.

And the NEL (rabbit [13]; [36])?
The NEL was 150 mg/kg/day.

What about the NOAEL (rabbit [13]; [36]) of the same molecule?
Its NOAEL is 150 mg/kg/day.

And the LOAEL (rabbit [13]; group: maternal, systemic / in life observation / body weight / body weight gain)?
Its LOAEL is 450 mg/kg/day.

What about the LEL (rabbit [13]; [37]) of the same molecule?
The LEL was 450 mg/kg/day.

What about the NEL (rabbit [13]; [37]) of the same molecule?
The NEL was 150 mg/kg/day.

And the NOAEL (rabbit [13]; [37])?
Its NOAEL is 150 mg/kg/day.

What about the LOAEL (rat [14]; [38]) of the same molecule?
The LOAEL was over 54 mg/kg/day.

What about the NOAEL (rat [14]; [38]) of the same molecule?
The NOAEL was at least 54 mg/kg/day.

And the LEL (rat [14]; [39])?
The LEL was 25 mg/kg/day.

What about the NEL (rat [14]; [39]) of the same molecule?
The NEL was 5.9 mg/kg/day.

What about the LOAEL (rat [14]; [40]) of the same molecule?
Its LOAEL is 54 mg/kg/day.

And the NEL (rat [14]; [40])?
Its NEL is 4.7 mg/kg/day.

What about the NOAEL (rat [14]; [40]) of the same molecule?
Its NOAEL is 18 mg/kg/day.

And the LEL (rat [14]; group: systemic, systemic / pathology microscopic / lung / focal cellular change + systemic / pathology microscopic / seminal vesicle / secretory fluid)?
The LEL was 18 mg/kg/day.
